The nature of series [1]: CC50 assay (CellTiter-Glo) in Huh-7 HCV replicon cells. The following applies: human, 3 days incubation, CellTiter-Glo readout. It counts as cell-based, human. In short, it runs like this: (§1)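 Huh-7 cells carrying an HCV replicon (6000/well) exposed to 3-fold serial compound dilutions for 3 days at 37 °C, final DMSO 0.5% where used. EC50 read as replicon luciferase luminescence after cell lysis; CC50 from CellTiter-Glo luminescence after 10 min at room temperature.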
A general note: Cellular ATP, detected with luciferase, serves as a proxy for viable cell number.

For series [2], the system named is HCV replicon in human hepatoma Huh-7 cell line. Description: Anti-HCV replicon assay (EC50, luciferase). It counts as cell-based. The following applies: Hepatitis C virus, Huh-7, 72 h. A digest of the protocol:
as §1
A general note: A replicon is a self-replicating genome or part of one, used to study replication in cells.

Bounds are passed on as bounds.

The term CC50 denotes the concentration giving 50% cytotoxicity. The term EC50 denotes the concentration needed to bring the measured effect to its halfway point. A high value points to a less potent agent. The compound `CS(=O)(=O)N(CCO)c1cccc(-c2ccc3nc(NCc4ccc(S(N)(=O)=O)cc4)nc(NCC(F)(F)F)c3n2)c1` [Example 161, 4-{[4-(2,2,2-Trifluoroethyl)-amino-6-(4-(3-(N-2-hydroxyethyl)methane-sulfonamido)-phenyl)-pyrido[3,2-d]pyrimidin-2-ylamino]-methyl}-benzenesulfonamide] came in with a CC50 at 3 days in series [1] greater than 25 µM. Further, the 50% effective concentration (EC50) in series [2] was less than 0.1 µM.

`CS(=O)(=O)CCNc1nc(NCc2ccc(S(N)(=O)=O)cc2)nc2ccc(-c3ccc(C(=O)NC4CC4)cc3)nc12` [Example 162, 4-{[4-(2-Methanesulfonylethyl)-amino-6-(4-(N-cyclopropylcarbamoyl)-phenyl)-pyrido[3,2-d]pyrimidin-2-ylamino]-methyl}-benzenesulfonamide]: in series [1], the CC50 at 3 days is greater than 25 µM. The compound also displayed a concentration giving a half-maximal response (EC50) in series [2] of 0.1 to 0.25 µM.

On to `CS(=O)(=O)CCNc1nc(NCc2ccc(S(N)(=O)=O)cc2)nc2ccc(-c3ccc(F)c(NS(=O)(=O)C4CC4)c3)nc12` [Example 164, 4-{[4-(2-Methanesulfonylethyl)-amino-6-(4-(3-cyclopropanesulfonamido-4-fluoro)-phenyl)-pyrido[3,2-d]pyrimidin-2-ylamino]-methyl}-benzenesulfonamide], for which the cytotoxic concentration (CC50) at 3 days in series [1] was greater than 25 µM. Further, the EC50 in series [2] is 0.1 to 0.25 µM.

In the case of `Cc1noc(C)c1-c1ccc2nc(NCc3ccc(S(N)(=O)=O)cc3)nc(NCC(F)(F)F)c2n1` [Example 165, 4-{[6-(3,5-Dimethyl-isoxazol-4-yl)-4-(2,2,2-trifluoro-ethylamino)-pyrido[3,2-d]pyrimidin-2-ylamino]-methyl}-benzenesulfonamide], the CC50 at 3 days in series [1] is less than 5 µM. The EC50 in series [2] is less than 0.1 µM.

`Cn1cc(-c2ccc3nc(NCc4ccc(S(N)(=O)=O)cc4)nc(NCC(F)(F)F)c3n2)cn1` [Example 166, 4-{[6-(1-Methyl-1H-pyrazol-4-yl)-4-(2,2,2-trifluoro-ethylamino)-pyrido[3,2-d]pyrimidin-2-ylamino]-methyl}-benzenesulfonamide] gave a CC50 at 3 days in series [1] greater than 25 µM. In series [2], the half-maximal effective concentration (EC50) is less than 0.1 µM.

As for `NS(=O)(=O)c1ccc(CNc2nc(NCC(F)(F)F)c3nc(-c4cnc(N5CCCC5)cn4)ccc3n2)cc1` [Example 167, 4-{[6-(5-Pyrrolidin-1-yl-pyrazin-2-yl)-4-(2,2,2-trifluoro-ethylamino)-pyrido[3,2-d]pyrimidin-2-ylamino]-methyl}-benzenesulfonamide], the CC50 at 3 days in series [1] is less than 5 µM. In series [2], this compound registered an EC50 of less than 0.1 µM.

As for `NS(=O)(=O)c1ccc(CNc2nc(NCC(F)(F)F)c3nc(-c4ccnc(C(F)(F)F)c4)ccc3n2)cc1` [Example 168, 4-{[4-(2,2,2-Trifluoro-ethylamino)-6-(2-trifluoromethyl-pyridin-4-yl)-pyrido[3,2-d]pyrimidin-2-ylamino]-methyl}-benzenesulfonamide], in series [1], the CC50 at 3 days is greater than 25 µM. For the same compound, the EC50 in series [2] is less than 0.1 µM.

In turn, `Nc1cc(-c2ccc3nc(NCc4ccc(S(N)(=O)=O)cc4)nc(NCC(F)(F)F)c3n2)ccn1` [Example 169, 4-{[6-(2-Amino-pyridin-4-yl)-4-(2,2,2-trifluoro-ethylamino)-pyrido[3,2-d]pyrimidin-2-ylamino]-methyl}-benzenesulfonamide] had a CC50 at 3 days in series [1] greater than 25 µM. The same compound displayed an EC50 in series [2] of less than 0.1 µM.

In series [1], `NS(=O)(=O)c1ccc(CNc2nc(NCC(F)(F)F)c3nc(-c4csc(N5CCCC5)n4)ccc3n2)cc1` [Example 170, 4-{[6-(2-Pyrrolidin-1-yl-thiazol-4-yl)-4-(2,2,2-trifluoro-ethylamino)-pyrido[3,2-d]pyrimidin-2-ylamino]-methyl}-benzenesulfonamide] returned a CC50 at 3 days of less than 5 µM. For the same compound, the EC50 in series [2] was less than 0.1 µM.

In series [1], `NS(=O)(=O)c1ccc(CNc2nc(NCC(F)(F)F)c3nc(-c4ccc(O)cc4)ccc3n2)cc1` [Example 171, 4-{[6-(4-Hydroxy-phenyl)-4-(2,2,2-trifluoro-ethylamino)-pyrido[3,2-d]pyrimidin-2-ylamino]-methyl}-benzenesulfonamide] registered a CC50 at 3 days greater than 25 µM. In addition, the EC50 in series [2] was less than 0.1 µM.

As to `COc1cc(-c2ccc3nc(NCc4ccc(S(N)(=O)=O)cc4)nc(NCC(F)(F)F)c3n2)ccn1` [Example 172, 4-{[6-(2-Methoxy-pyridin-4-yl)-4-(2,2,2-trifluoro-ethylamino)-pyrido[3,2-d]pyrimidin-2-ylamino]-methyl}-benzenesulfonamide], the CC50 at 3 days in series [1] fell in the range of 5 to 25 µM. Further, the concentration giving a half-maximal response (EC50) in series [2] is less than 0.1 µM.

Take `N#Cc1cc(-c2ccc3nc(NCc4ccc(S(N)(=O)=O)cc4)nc(NCC(F)(F)F)c3n2)ccn1` [Example 173, 4-{[6-(2-Cyano-pyridin-4-yl)-4-(2,2,2-trifluoro-ethylamino)-pyrido[3,2-d]pyrimidin-2-ylamino]-methyl}-benzenesulfonamide]: in series [1], the CC50 at 3 days was greater than 25 µM. This compound yielded an EC50 in series [2] of less than 0.1 µM.

In series [1], `Nc1ncc(-c2ccc3nc(NCc4ccc(S(N)(=O)=O)cc4)nc(NCC(F)(F)F)c3n2)cn1` [Example 174, 4-{[6-(2-Amino-pyrimidin-5-yl)-4-(2,2,2-trifluoro-ethylamino)-pyrido[3,2-d]pyrimidin-2-ylamino]-methyl}-benzenesulfonamide] yielded a CC50 at 3 days greater than 25 µM. Besides, in series [2], the EC50 is less than 0.1 µM.

In turn, `N#Cc1cccc(-c2ccc3nc(NCc4ccc(S(N)(=O)=O)cc4)nc(NCC(F)(F)F)c3n2)c1` [Example 175, 4-{[6-(3-Cyano-phenyl)-4-(2,2,2-trifluoro-ethylamino)-pyrido[3,2-d]pyrimidin-2-ylamino]-methyl}-benzenesulfonamide] came in with a half-maximal cytotoxic concentration (CC50) at 3 days in series [1] greater than 25 µM. In series [2], this compound showed an EC50 of less than 0.1 µM.

In turn, `CN1CC[C@H](C(=O)Nc2ccc(-c3ccc4nc(NCc5ccc(S(N)(=O)=O)cc5)nc(OC5CC5)c4n3)cc2)C1` [Example 176, 1-Methyl-pyrrolidine-3-carboxylic acid {4-[4-cyclopropoxy-2-(4-sulfamoyl-benzylamino)-pyrido[3,2-d]pyrimidin-6-yl]-phenyl}-amide] displayed a CC50 at 3 days in series [1] greater than 25 µM. Also, the half-maximal effective concentration (EC50) in series [2] was less than 0.1 µM.

On to `CN1CC[C@H](C(=O)Nc2ccc(-c3ccc4nc(NCc5ccc(S(N)(=O)=O)cc5)nc(NCC(F)(F)F)c4n3)cc2F)C1` [Example 177, 1-Methyl-pyrrolidine-3-carboxylic acid {2-fluoro-4-[2-(4-sulfamoyl-benzylamino)-4-(2,2,2-trifluoro-ethylamino)-pyrido[3,2-d]pyrimidin-6-yl]-phenyl}-amide], for which the CC50 at 3 days in series [1] lay in the range of 5 to 25 µM. For the same compound, the EC50 in series [2] is less than 0.1 µM.

Regarding `CN1CC[C@H](C(=O)Nc2ccc(-c3ccc4nc(NCc5ccc(S(N)(=O)=O)cc5)nc(NCC(F)(F)F)c4n3)cc2)C1` [Example 178, 1-Methyl-pyrrolidine-3-carboxylic acid {4-[2-(4-sulfamoyl-benzylamino)-4-(2,2,2-trifluoro-ethylamino)-pyrido[3,2-d]pyrimidin-6-yl]-phenyl}-amide], the CC50 at 3 days in series [1] was in the range of 5 to 25 µM. In series [2], this compound came in with a 50% effective concentration (EC50) of less than 0.1 µM.

`NS(=O)(=O)c1ccc(CNc2nc(NCC(F)(F)F)c3nc(-c4ccc(N5CCC(O)C5=O)cc4)ccc3n2)cc1` (stereo not drawn) [Example 179, 4-{[6-[4-(3-Hydroxy-2-oxo-pyrrolidin-1-yl)-phenyl]-4-(2,2,2-trifluoro-ethylamino)-pyrido[3,2-d]pyrimidin-2-ylamino]-methyl}-benzenesulfonamide] returned a CC50 at 3 days in series [1] greater than 25 µM. Also, in series [2], the EC50 was less than 0.1 µM.

The values above are taken from US8729089B2 (Gilead Sciences, Inc., priority 2006, dated 2014).
